Patent EP0943606A1, “BENZENESULFONAMIDE DERIVATIVES AND DRUGS CONTAINING THE SAME” (HOKURIKU SEIYAKU CO., LTD., priority 1996, dated 1998)

Legend:
[1] = tested on: bronchoconstriction induced by U-46619; assay: Inhibitory effect on bronchoconstriction induced by U-46619 (Konzett-Roessler); assay type: in vivo, Male Hartley guinea-pigs; conditions: Cavia porcellus; 0.3 mg/kg orally, 2 hours before U-46619 (4 µg/kg, cervical vein), anesthetized guinea-pigs, compared to control group; read-out: Inhibition rate (%)
Experimental: Airway resistance was evaluated according to the method of Konzett-Roessler [Naunyn-Schmiedberg's Arch. Exp. Path. Pharmak., Vol. 195, 71 (1940)]. Male Hartley guinea-pigs (about 400g wt.) were anesthetized with urethane (1.5g/kg, i.p.) and ventilated by an artificial respirator (Model 683; Harvard). At the same time, overflowed air volume above the pressure of about 12cm H2O was measured by using a sensor (Model 7020; Ugo Basile) and the value was used as an index of bronchoconstriction. 0.3 mg/kg (5 ml/kg) of test compounds suspended in 5% gum Arabic was administered orally to the guinea-pigs fasted beforehand for 24 hours. After 2 hours, U-46619 (4 µg/kg; Cayman) was administered through the cervical vein, and then maximal response was measured. Inhibitory rates compared to the control group were calculated based on the response rate normalized by the complete closure as 100%. […]

[2] = biological target: T1, thromboxane A2 / prostaglandin H2 receptor (Cavia porcellus, UniProt A0A286Y4I8); assay: Thromboxane A2 antagonistic effect (isolated trachea, U-46619 concentration-response curves, Schild); design: species or system male Hartley guinea-pigs; conditions: isolated guinea-pig trachea, contraction by U-46619, test compound treatment 5 minutes, indomethacin 3 × 10^-6M, method of Schild
T1 construct: tracheas were isolated from male Hartley guinea-pigs, and spiral specimens of approximately 2 cm length were prepared; from tissue; host or cells: isolated guinea-pig trachea (spiral strips)
T1 sequence (A0A286Y4I8 1-347): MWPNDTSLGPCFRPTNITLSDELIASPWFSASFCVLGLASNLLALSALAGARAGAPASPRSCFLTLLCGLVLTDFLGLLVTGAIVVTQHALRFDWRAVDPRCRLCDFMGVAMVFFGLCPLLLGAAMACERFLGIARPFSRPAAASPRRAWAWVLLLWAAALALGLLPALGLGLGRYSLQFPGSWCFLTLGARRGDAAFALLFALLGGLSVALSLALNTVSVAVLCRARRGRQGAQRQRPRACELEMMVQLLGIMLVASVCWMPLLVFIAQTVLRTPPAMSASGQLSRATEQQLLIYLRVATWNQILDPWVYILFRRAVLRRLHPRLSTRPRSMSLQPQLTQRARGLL
Experimental: According to an ordinary method, tracheas were isolated from male Hartley guinea-pigs, and spiral specimens of approximately 2 cm length were prepared. These specimens were suspended in organ baths that contained Krebs-Henseleit solution at 37°C under a resting tension of 1.5 g, and the changes in isometric tension were recorded. The first concentration-response curves were obtained by cumulative applications of 1 × 10^-9 to 3 × 10^-7M of U-46619 (Cayman, thromboxane A2 / prostaglandin H2 receptor agonist) in the organ baths. After treatments with test compounds at adequate concentrations for 5 minutes, the second concentration-response curves were obtained in the same manner as the first applications. pKB values were calculated using these two concentration-response curves according to the method of Schild [Pharmacological Review, Vol. 9, 242 (1957)]. Indomethacin (3 × 10^-6M, Sigma) was added beforehand to the organ bath to eliminate possible affections by thromboxane A2 and prostaglandin produced endogenously [Japan J. Pharmacol., Vol. 60, 227 (1992)].

human liver microsomes = assay: In vitro metabolism test; assay type: in vitro ADME; conditions: 0.4mg protein/ml human liver microsomes, 0.02 mM test compound, NADPH-generating system, 37°C for 30 minutes, HPLC
Experimental: 0.05 mM EDTA-0.1M phosphate buffer (pH 7.4), distilled water, 0.4mg protein/ml human liver microsomes and 0.02 mM test compound were mixed in a test tube under ice-cooling. After the mixture was shaken at 37°C for 2 minutes beforehand, the mixture was added with a ready-mix of NADPH-generating system and then shaken at 37°C for 30 minutes. After the incubation, the reaction was stopped by cooling with ice. The mixture was added with acetonitrile and well mixted, and then centrifuged at 3000 rpm for 10 minutes. The resulting supernatant was subjected to HPLC measurement, and the residual rate of test compound was calculated from the ratio of a peak area of an unchanged compound in the reaction sample in comparison with a non-reaction mixture. Preparations of reagents and reaction mixtures were carried out by referring to Shin Seikagaku Koza, Vol. 5: Biological oxidation and drug metabolism edited by The Japanese Biochemical Society. […]

leukotriene D4 = biological target: T2, leukotriene D4 (Cavia porcellus, UniProt Q2NNR5); assay: Leukotriene D4 antagonistic effect (isolated trachea, leukotriene D4 concentration-response curves, Schild); design: species or system male Hartley guinea-pigs; conditions: isolated guinea-pig trachea, contraction by leukotriene D4, test compound treatment 30 minutes, indomethacin 1 × 10^-6M, method of Schild
T2 construct: tracheas were isolated from male Hartley guinea-pigs, and spiral specimens of approximately 2 cm length were prepared; from tissue; host or cells: isolated guinea-pig trachea (spiral strips)
T2 sequence (Q2NNR5 1-340): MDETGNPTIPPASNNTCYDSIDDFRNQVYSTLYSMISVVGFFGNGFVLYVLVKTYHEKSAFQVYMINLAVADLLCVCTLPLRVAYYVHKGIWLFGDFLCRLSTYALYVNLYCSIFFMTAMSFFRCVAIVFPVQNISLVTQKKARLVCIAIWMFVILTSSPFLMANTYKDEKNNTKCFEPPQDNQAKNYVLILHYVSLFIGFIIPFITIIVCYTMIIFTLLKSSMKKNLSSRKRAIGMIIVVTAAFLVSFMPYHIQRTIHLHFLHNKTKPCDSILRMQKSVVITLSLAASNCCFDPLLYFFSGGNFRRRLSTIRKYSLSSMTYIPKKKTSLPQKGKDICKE
Experimental: According to an ordinary method, tracheas were isolated from male Hartley guinea-pigs, and spiral specimens of approximately 2 cm length were prepared. These specimens were suspended isotonically in organ baths that contained Krebs-Henseleit solution at 37°C under a resting tension of 0.5g. After contractions with acetylcholine (1 × 10^-5M; Ovisot for injection, Daiichi Seiyaku), and the first concentration-response curves were obtained by cumulative applications of 10^-10 to 10^-8M of leukotriene D4 (ULTRA FINE) in the organ baths. After treatments with test compounds at adequate concentrations for 30 minutes, the second concentration-response curves were obtained in the same manner as the first applications. pKB values were calculated using these two concentration-response curves according to the method of Schild [Pharmacological Review, Vol. 9, 242 (1957)]. Indomethacin (1 × 10^-6M, Sigma) was added beforehand to the organ bath to eliminate possible affections by thromboxane A2 and prostaglandin produced by stimulus of leukotriene D4 [Japan J. Pharmacol., Vol. 60, 227 (1992)]. […]

[3] = tested on: bronchoconstriction induced by leukotriene D4; assay: Inhibitory effect on bronchoconstriction induced by leukotriene D4 (Konzett-Roessler); assay type: in vivo, Male Hartley guinea-pigs; conditions: Cavia porcellus; oral administration 2 hours before leukotriene D4 (1 µg/kg, cervical vein), anesthetized guinea-pigs, indomethacin and propranolol pretreated
Experimental: Airway resistance was evaluated according to the method of Konzett-Roessler [Naunyn-Schmiedberg's Arch. Exp. Path. Pharmak., Vol. 195, 71 (1940)]. Male Hartley guinea-pigs fasted beforehand for 24 hours were anesthetized with urethane, and then overflowed air volume was measured under artificial ventilation as an index of bronchoconstriction. Various doses of test compounds suspended in 5% gum Arabic were administered orally, and after 2 hours, leukotriene D4 (1 µg/kg; ULTRA FINE) was administered through the cervical vein. Then, values at 2 minutes were measured when maximum responses were obtained. Inhibitory rates compared to the control group were calculated based on the response rate normalized by the overflowed volume at complete closure as 100% bronchoconstriction rate, and the 50% inhibitory doses (ED50 values) were calculated using dose-inhibitory rate curves. Indomethacin (2mg/kg, i.v.) and propranolol (1mg/kg, i.v.) were administered at 10 minutes and 5 minutes before the administration of leukotriene D4, respectively. […]

Kb [2]: 0.398 nM | Residual rate (%) (human liver microsomes): 84% | Kb (leukotriene D4): 251 nM
Structure (SMILES): O=C(O)CCCc1ccc(C(CCCCCC(F)(F)F)NS(=O)(=O)c2ccc(F)cc2)s1 (centres unmarked) [Example 172, 4-[5-[7,7,7-Trifluoro-1-(4-fluorophenylsulfonylamino)heptyl]-2-thienyl]butyric Acid]
inhibition in vivo at 0.3 mg/kg [1]: 73% | ED50 [3]: 2.4 mg/kg
